{
  "source": "paper PMC10108345",
  "about": "“Differentiating Inhibition Selectivity and Binding Affinity of Isocitrate Dehydrogenase 1 Variant Inhibitors” (Journal of Medicinal Chemistry, 2023)",
  "key": {"wt IDH1 [1]": {"target": "T1, wt IDH1 (Homo sapiens, UniProt O75874)", "T1 construct": "made in house; host or cells: Escherichia coli BL21(DE3) pLyS", "assay": "Differential scanning fluorimetry (DSF) thermal shift, wt IDH1", "type": "binding", "conditions": "largest change in Tm of IDH1 ([…]) with 3-100 μM inhibitor", "experimental": "Thermal shift experiments were carried out using Sypro Orange and a CFX96 Touch Real-Time PCR Detection System (Bio-Rad) machine.[42] […] The standard assay buffer contains 50 mM tris–HCl at pH 7.5. Various concentrations of compounds (1% DMSO final) were mixed with IDH1 for thermal stabilization studies. […] Bio-Rad CFX Manager was used to determine the melting temperature, Tm."}, "IDH1 R132H [2]": {"target": "T2, IDH1 R132H (Homo sapiens, UniProt O75874, R132H)", "T2 construct": "made in house; host or cells: Escherichia coli BL21(DE3) pLyS", "T2 sequence (O75874 whole entry R132H)": "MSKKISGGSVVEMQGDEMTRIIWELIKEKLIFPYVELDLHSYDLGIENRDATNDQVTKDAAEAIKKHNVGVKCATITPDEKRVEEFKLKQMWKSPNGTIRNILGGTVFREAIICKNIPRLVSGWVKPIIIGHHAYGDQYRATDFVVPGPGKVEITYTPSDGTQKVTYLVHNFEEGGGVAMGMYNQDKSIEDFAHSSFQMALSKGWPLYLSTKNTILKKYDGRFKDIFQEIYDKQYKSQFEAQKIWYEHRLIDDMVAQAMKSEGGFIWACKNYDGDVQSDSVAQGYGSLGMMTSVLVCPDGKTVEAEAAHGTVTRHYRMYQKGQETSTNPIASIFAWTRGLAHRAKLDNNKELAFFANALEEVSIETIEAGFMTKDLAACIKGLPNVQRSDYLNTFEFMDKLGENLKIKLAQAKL", "assay": "Circular dichroism (CD) melting temperature, IDH1 R132H", "type": "binding", "conditions": "inhibitor 42 μM, IDH 4.2 μM (0.2 mg/mL); read-out: Δ Tm/°C by CD IDH1 R132H", "experimental": "(§1) CD spectra were acquired using a Chirascan CD spectrometer (Applied Photophysics) with a Peltier temperature-control cell holder. Experiments were carried out in a 0.1 cm path length quartz cuvette at 20 °C. […] Spectra were averaged (n = 3) and smoothed (window size = 7) using the Savitzky–Golay filter. The mean residue ellipticity (MRE) was calculated according to the formula [drawing 1] where θ is the degree of ellipticity, N is the number of amino acids, c is the concentration (mol/L), and l is the path length (cm).\n(§2) Measurements were conducted in 2 °C increments. The melting temperature was calculated using a Boltzmann sigmoidal model in GraphPad Prism v5.04."}, "IDH1 R132H [3]": {"target": "T2, IDH1 R132H", "assay": "Absorbance turnover assay (NADPH, 340 nm), IDH1 R132H-catalyzed conversion of 2OG to 2HG", "type": "biochemical", "experimental": "IDH1 activities were measured spectrophotometrically by monitoring changes in NADPH absorbance at 340 nm.[10] […] The difference in absorbance, ΔA340, in the linear range of the reaction profile was converted to % residual activity using a DMSO control as the 100% residual activity reference. […] Experiments were performed in (at least) triplicate. The standard assay buffer for IDH1 consists of 100 mM tris–HCl, 10 mM MgCl2, 0.005% (v/v) Tween 20, pH 8.0, 0.2 mM DTT, and 0.1 mg/mL BSA. In general, compounds [25 μL, 0.4% (v/v) DMSO] were pre-incubated with IDH1 (25 μL) for 12 min, followed by addition of DL-isocitrate/2OG (25 μL) and NADP^+/NADPH (25 μL) to initiate the reaction. The substrate/cofactor concentrations were optimized by determining KM values for substrates/cofactors as described.[10]"}, "IDH1 R132H [4]": {"target": "T2, IDH1 R132H", "assay": "Isothermal titration calorimetry (ITC), IDH1 R132H", "type": "binding", "conditions": "40 μM IDH1, 50 mM tris-HCl pH 7.5, 25 °C", "experimental": "ITC was conducted using a Malvern MicroCal PEAQ-ITC Automated machine (Malvern Panalytical). In general, IDH1 was prepared in 50 mM tris–HCl, pH 7.5, and the compounds were dissolved in the same buffer. 400 μL of cell solution containing 40 μM IDH1 [4% (v/v) DMSO] and 200 μL of the titrant containing 200 or 400 μM compound [2% or 4% (v/v) DMSO] were transferred to an ITC plate (Malvern Panalytical WEL020854-010). […] The injection setup consisted of 19 injections, with 1 initial injection of 0.4 μL and 18 subsequent injections of 2.0 μL each with 150 s between the injections. Thermodynamic parameters were obtained using MicroCal PEAQ-ITC analysis software."}, "wt IDH1 [5]": {"target": "T1, wt IDH1", "assay": "Circular dichroism (CD) melting temperature, wt IDH1", "type": "binding", "conditions": "inhibitor 42 μM, IDH 4.2 μM (0.2 mg/mL); read-out: Δ Tm/°C by CD wt IDH1", "experimental": "as §1, §2"}},
  "data": [
    {"smiles": "Cc1ccccc1C(C(=O)NC1CCCCC1)N(C(=O)Cn1ccnc1C)c1cccc(F)c1", "note": "(stereo not drawn) [AGI-5198]", "values": [
      {"measurement": "Δ Tm/°C by DSF wt IDH1", "setting": "wt IDH1 [1]", "value": 6.9, "unit": "°C"},
      {"measurement": "ΔTm at 42 µM", "setting": "IDH1 R132H [2]", "value": 7.7, "unit": "°C"},
      {"measurement": "Selectivity against IDH1 R132H over IDH1 wt", "setting": "IDH1 R132H [3]; IC50 (IDH1 wt)/IC50 (IDH1 R132H)", "value": ">164"},
      {"measurement": "IC50", "setting": "IDH1 R132H [3]; IDH1 R132H (30 nM), 2OG to 2HG, 100 mM tris-HCl, 10 mM MgCl2, pH 8.0", "value": 61, "unit": "nM"},
      {"measurement": "Kd", "setting": "IDH1 R132H [4]", "value": "> 400", "unit": "µM"},
      {"measurement": "ΔTm at 42 µM", "setting": "wt IDH1 [5]", "value": 2.9, "unit": "°C"}
    ]}
  ]
}
